In ChEMBL document CHEMBL1201862, “PubChem BioAssay data set” (2004):
Activity calls are given as the source filed them. Rule as the data show it: actives have a measured IC50 and inactives only a lower limit.

Target: Envelope glycoprotein gp160 (Human immunodeficiency virus 1, UniProt Q6QLK5)
Assay: inhibitors of HIV fusion peptide binding, primary screen, biochemical, uHTS, fluorescence dequenching (AID 1986)

Envelope glycoprotein gp160, sequence (Q6QLK5 whole entry, the tested form may be a part): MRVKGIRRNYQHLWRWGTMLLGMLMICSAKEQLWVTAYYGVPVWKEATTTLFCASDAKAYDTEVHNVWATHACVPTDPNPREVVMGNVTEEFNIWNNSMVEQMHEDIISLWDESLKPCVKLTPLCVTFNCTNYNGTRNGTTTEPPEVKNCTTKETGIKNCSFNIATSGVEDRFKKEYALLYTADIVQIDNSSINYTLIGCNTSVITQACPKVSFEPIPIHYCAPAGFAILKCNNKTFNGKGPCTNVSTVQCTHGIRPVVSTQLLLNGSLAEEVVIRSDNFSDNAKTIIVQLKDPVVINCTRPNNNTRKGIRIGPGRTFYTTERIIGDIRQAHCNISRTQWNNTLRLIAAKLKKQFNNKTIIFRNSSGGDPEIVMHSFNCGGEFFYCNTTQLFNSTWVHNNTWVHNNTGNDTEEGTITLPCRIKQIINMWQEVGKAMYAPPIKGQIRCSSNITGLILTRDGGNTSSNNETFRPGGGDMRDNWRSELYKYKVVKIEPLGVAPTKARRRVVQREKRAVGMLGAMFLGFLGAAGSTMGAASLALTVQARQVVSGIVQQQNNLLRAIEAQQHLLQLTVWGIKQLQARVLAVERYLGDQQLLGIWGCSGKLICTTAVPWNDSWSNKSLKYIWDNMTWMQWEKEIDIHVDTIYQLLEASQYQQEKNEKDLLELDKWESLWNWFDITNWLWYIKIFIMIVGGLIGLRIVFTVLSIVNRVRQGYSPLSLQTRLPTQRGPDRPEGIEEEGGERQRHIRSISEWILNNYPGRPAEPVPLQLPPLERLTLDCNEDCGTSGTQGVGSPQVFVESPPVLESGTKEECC

O=C(O)CSc1nc(-c2ccc(Cl)cc2)nc2c1oc1ccccc12
IC50: 15.4 µM (active)

COc1cccc(-c2nc(SCC(=O)Nc3nc(-c4ccccc4)c(C)s3)[nH]c(=O)c2C#N)c1
IC50: 10.3 µM (active)
